Experimental data as given in US10308916B2, “Omega-transaminase mutants with activity improvements toward ketones and methods for producing optically pure amines” (Industry-Academic Cooperation Foundation, Yonsei University, priority 2015, dated 2019).
Where “and” joins values, the source holds several entries; their conditions need not be identical. Identical values can stand only once. Like-named read-outs stand apart in the source and are kept apart here.

Columns and labels:
Assay type in all cases: biochemical
[1] = test system: OATA W58A
[2] = test system: OATA W58A; remark: listed apart in the source
[3] = test system: OATA L57A/W58A
[4] = test system: OATA L57A/W58A/V154A
[5] = test system: OATA W58L
[6] = test system: OATA L57C/W58L/I261A
[7] = test system: OATA W58D/I261A
[8] = test system: OATA L57Q/W58N/I261L
[9] = test system: OATA W58L; remark: listed apart in the source
[10] = test system: W58A mutant
[11] = test system: OATA W58V; conditions: pH 7
[12] = test system: OATA W58D/I261A; remark: listed apart in the source
[13] = test system: OATA W58A; remark: listed apart in the source
[14] = test system: OATA W58A, OATA W58M, OATA W58V and OATA W58I mutants
[15] = test system: OATA L57C/W58L/I261A; remark: listed apart in the source
[16] = test system: OATA W58M; conditions: pH 7
[17] = test system: OATA W58I; conditions: pH 7
[18] = test system: OATA W58A; conditions: pH 7
[19] = test system: OATA L57Q/W58N/I261L; remark: listed apart in the source
[20] = test system: OATA L57A/W58A/V154A; remark: listed apart in the source
[21] = test system: OATA L57A/W58A; remark: listed apart in the source
[22] = test system: OATA W58L; conditions: pH 7
[23] = test system: OATA L57A
[24] = test system: OATA W58L; remark: listed apart in the source
[25] = test system: OATA W58L; remark: listed apart in the source

SMILES | Relative reactivity, OATA W58A [2] | Relative activity, OATA L57A/W58A [3] | Relative activity, OATA L57A/W58A/V154A [4] | Relative reactivity, OATA W58L [5] | Relative activity, OATA L57C/W58L/I261A [6] | Relative activity, OATA L57Q/W58N/I261L [8] | Fold-increase in kcat/KM [9] | fold decrease in KM (tighter binding) [9] | Relative activity to acetophenone, OATA W58V [11] | Relative activity to acetophenone, OATA W58M [16] | Relative activity to acetophenone, OATA W58I [17] | Relative activity to acetophenone, OATA W58A [18] | Relative activity to acetophenone, OATA W58L [22] | Relative activity, OATA L57A [23] | further results
CC(C)C(N)c1ccccc1 (racemic) [2-Methyl-1-phenylpropan-1-amine] | 3% | 12% | 167% | 2% |  |  |  |  |  |  |  |  |  |  | relative activity to (S)-α-MBA measured with OATA WT, OATA W58A [1]: 6%
C[C@H](N)c1ccccc1 [(S)-α-methylbenzylamine] | 100% | 621% | 1,190%^ | 100% | 900% | 262% | 170 | 207 |  |  |  |  |  |  | Relative activity, OATA W58D/I261A [7]: 17%
CCC[C@H](N)c1ccccc1 [(S)-α-propylbenzylamine] | 10% | 240% | 749% | 2% |  |  |  |  |  |  |  |  |  |  | relative activity to (S)-α-MBA measured with OATA WT, OATA W58A [1]: 20%
NCc1ccccc1 [Benzylamine] | 50% |  |  | 49% | 792% | 123% |  |  |  |  |  |  |  |  | Relative activity, OATA W58D/I261A [7]: 17%
CC(C)N [Isopropylamine] | 28% |  |  | 72% | 8% | 23% | 8.6 | 8.9 |  |  |  |  |  |  | 
CC(=O)c1ccccc1 [Ketone 1a, acetophenone] |  |  |  |  |  |  | 340 | 6.1 | 100% | 100% | 100% | 100% | 100% | 89% | fold increase in activity [10]: 41; Relative activity, OATA W58D/I261A [12]: 648%; Relative activity, OATA W58A [13]: 1,206%^; fold increase in reactivity as compared to OATA WT [14]: more than 40; Relative activity, OATA L57C/W58L/I261A [15]: 12,174%; Relative activity, OATA L57Q/W58N/I261L [19]: 2,500%; Relative activity, OATA L57A/W58A/V154A [20]: 637%; fold increase in turnover number (kcat) [9]: 55.7; kcat relative to kcat of the wild-type enzyme for pyruvate [9]: up to 20%; Relative activity, OATA L57A/W58A [21]: 716%
CCCC(=O)c1ccccc1 [Ketone 1c, butyrophenone] |  |  |  |  |  |  |  |  | 12% | 15% | 11% | 8% | >0.1%^ | 1% | Relative activity, OATA W58A [13]: 8%; Relative activity, OATA L57A/W58A/V154A [20]: 747%; Relative activity, OATA L57A/W58A [21]: 302%; fold increase in amination activity compared to OATA W58A [21]: > 30 and 38
CC(=O)CCc1ccccc1 [Ketone 1f, benzylacetone] |  |  |  |  |  |  |  |  | 193% | 178% | 125% | 219% | 277% | 439% | Relative activity, OATA L57C/W58L/I261A [15]: 6,330%; Conversion (%) OATAW58L [24]: 93%; Conversion, preparative scale [24]: 92%
O=C1CCc2ccccc21 [Ketone 1g] |  |  |  |  |  |  |  |  |  |  |  |  |  |  | Fold-increase [25]: >760
O=C1CCCc2ccccc21 [Ketone 1h] |  |  |  |  |  |  |  |  |  |  |  |  |  |  | Fold-increase [25]: >210
